# Experiments:
# P388 = assay: Cytotoxicity against mouse P388 cells after 4 days; type: functional; settings: P388, 96 h, read-out: ED50 (the source's name)
# L1210 = assay: Cytotoxicity against mouse L1210 cells after 4 days; type: functional; settings: L1210, 96 h, read-out: ED50 (the source's name)
SMILES,EC50 (P388),EC50 (L1210)
CC1=CC(=O)CC(C)(C)[C@@]1(O)CC(=O)/C(C)=C/C=C/C(C)=C/C=C/C=C(C)/C=C/C=C(\C)C=C=C1C(C)(C)C[C@H](O)C[C@@]1(C)O [AMAROUCIAXANTHIN A],150 µg/mL,50 µg/mL
CC1=CC(=O)CC(C)(C)[C@@]1(O)CC(=O)/C(C)=C/C=C/C(C)=C/C=C/C=C(C)/C=C/C=C(\C)C#CC1=C(C)C[C@@H](O)CC1(C)C [AMAROUCIAXANTHIN B],300 µg/mL,100 µg/mL
CC1=C(C#C/C(C)=C/C=C/C(C)=C/C=C/C=C(C)/C=C/C=C(\C)C(=O)C[C@@]23O[C@]2(C)C[C@@H](O)CC3(C)C)C(C)(C)C[C@H](O)C1 [HALOCYNTHIAXANTHIN],12.5 µg/mL,25 µg/mL
